Measured values reported in ChEMBL document CHEMBL1201862, “PubChem BioAssay data set” (2004).
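1) Cells in 96-well plates. 2) Compound, 48 h, 5 concentrations. 3) Linear interpolation between surrounding doses. 4) Unreached endpoint = highest concentration. At the GI50, growth is halved.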 The source made the active and inactive calls. Cut-off read from the data, not from the text of the source: active = GI50 up to about 1.1 µM and inactive = higher.

Experiments:
Assay in all cases: NCI anticancer screen, dose series, 48 h
RPMI-8226 = tested on: RPMI-8226
Hs-578T = tested on: Hs-578T
UACC-257 = tested on: UACC-257
TK-10 = tested on: TK-10
MOLT-4 = tested on: MOLT-4
SF-268 = tested on: SF-268
T47D = tested on: T47D
EKVX = tested on: EKVX
A549 = tested on: A549
OVCAR-3 = tested on: OVCAR-3
NCI-H460 = tested on: NCI-H460
CCRF-CEM = tested on: CCRF-CEM
UO-31 = tested on: UO-31
ACHN = tested on: ACHN
HOP-62 = tested on: HOP-62
DU-145 = tested on: DU-145
NCI-H226 = tested on: NCI-H226
OVCAR-5 = tested on: OVCAR-5
KM12 = tested on: KM12
SK-MEL-2 = tested on: SK-MEL-2

SMILES | GI50 (RPMI-8226) | GI50 (Hs-578T) | GI50 (UACC-257) | GI50 (TK-10) | GI50 (MOLT-4) | GI50 (SF-268) | GI50 (T47D) | GI50 (EKVX) | GI50 (A549) | GI50 (OVCAR-3) | GI50 (NCI-H460) | GI50 (CCRF-CEM) | GI50 (UO-31) | GI50 (ACHN) | GI50 (HOP-62) | GI50 (DU-145) | GI50 (NCI-H226) | GI50 (OVCAR-5) | GI50 (KM12) | GI50 (SK-MEL-2)
SCc1ccc(-c2ccc(CS)cc2)cc1 | 8.77 µM (inactive) | 3.98 µM (inactive) | 21.1 µM (inactive) | 24.3 µM (inactive) | 2.14 µM (inactive) | 3.33 µM (inactive) | 19.7 µM (inactive) | 26 µM (inactive) | 20.5 µM (inactive) | 16.4 µM (inactive) | 10.4 µM (inactive) | 1.43 µM (inactive) | 18.4 µM (inactive) | 18.7 µM (inactive) | 6.75 µM (inactive) | > 10 µM (inactive) | 18.4 µM (inactive) | 12.3 µM (inactive) | 3.11 µM (inactive) | 19.7 µM (inactive)
C(/c1ccco1)=c1/nc(-c2ccccc2)n2c1nc1ccccc12 | 11.2 µM (inactive) | 49.1 µM (inactive) | > 100 µM (inactive) | 34.8 µM (inactive) | 10.3 µM (inactive) | 31.4 µM (inactive) | 1.08 µM (active) | 0.0107 µM (active) | 50 µM (inactive) | 9.06 µM (inactive) | 39.2 µM (inactive) | 16.6 µM (inactive) | 67 µM (inactive) | 21.9 µM (inactive) | 2.05 µM (inactive) | > 100 µM (inactive) | 9.48 µM (inactive) | 69.8 µM (inactive) | 11.2 µM (inactive) | 28.2 µM (inactive)
